Test results reported in paper PMC4854315, “Discovery of a novel allosteric inhibitor-binding site in ERK5: comparison with the canonical kinase hinge ATP-binding site” (Acta Crystallographica. Section D, Structural Biology, 2016).

Legend:
Assay in all cases: Z'-LYTE kinase panel
Type in all cases: biochemical
HIPK2 = molecular target: T1, HIPK2 (Homo sapiens, UniProt Q9H2X6)
T1 construct: purchased ThermoFisher (SelectScreen, Z'-LYTE)
Outline: (§1)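 Readout is percentage inhibition, obtained from the standard Z′-LYTE protocol with test compound present at 10 µM; screened within a panel of 225 kinases.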

FRK (PTK5) = molecular target: T2, FRK (PTK5) (Homo sapiens, UniProt P42685)
T2 construct: purchased ThermoFisher (SelectScreen, Z'-LYTE)
Outline: as §1

IKBKE (IKK epsilon) = molecular target: T3, IKBKE (IKK epsilon) (Homo sapiens, UniProt Q14164)
T3 construct: purchased ThermoFisher (SelectScreen, Z'-LYTE)
T3 sequence (Q14164 1-716): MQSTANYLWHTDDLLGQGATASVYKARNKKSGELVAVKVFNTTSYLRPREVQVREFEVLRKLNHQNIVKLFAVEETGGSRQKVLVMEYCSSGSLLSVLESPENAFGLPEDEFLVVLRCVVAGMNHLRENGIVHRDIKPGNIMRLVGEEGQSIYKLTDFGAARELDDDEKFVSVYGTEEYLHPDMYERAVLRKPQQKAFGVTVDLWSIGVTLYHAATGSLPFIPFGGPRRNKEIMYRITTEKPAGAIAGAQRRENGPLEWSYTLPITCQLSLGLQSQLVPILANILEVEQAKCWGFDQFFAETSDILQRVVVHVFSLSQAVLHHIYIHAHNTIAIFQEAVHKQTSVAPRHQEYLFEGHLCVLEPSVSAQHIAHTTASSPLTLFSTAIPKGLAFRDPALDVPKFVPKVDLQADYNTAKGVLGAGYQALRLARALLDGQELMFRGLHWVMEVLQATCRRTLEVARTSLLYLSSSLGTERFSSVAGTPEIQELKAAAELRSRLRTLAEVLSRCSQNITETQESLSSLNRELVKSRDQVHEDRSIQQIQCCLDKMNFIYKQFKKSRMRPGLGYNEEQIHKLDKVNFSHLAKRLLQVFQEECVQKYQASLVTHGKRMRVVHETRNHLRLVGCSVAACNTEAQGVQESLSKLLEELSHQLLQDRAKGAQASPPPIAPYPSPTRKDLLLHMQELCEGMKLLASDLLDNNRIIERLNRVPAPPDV
Outline: as §1

PRKD2 (PKD2) = molecular target: T4, PRKD2 (PKD2) (Homo sapiens, UniProt Q9BZL6)
T4 construct: purchased ThermoFisher (SelectScreen, Z'-LYTE)
T4 sequence (Q9BZL6 1-878): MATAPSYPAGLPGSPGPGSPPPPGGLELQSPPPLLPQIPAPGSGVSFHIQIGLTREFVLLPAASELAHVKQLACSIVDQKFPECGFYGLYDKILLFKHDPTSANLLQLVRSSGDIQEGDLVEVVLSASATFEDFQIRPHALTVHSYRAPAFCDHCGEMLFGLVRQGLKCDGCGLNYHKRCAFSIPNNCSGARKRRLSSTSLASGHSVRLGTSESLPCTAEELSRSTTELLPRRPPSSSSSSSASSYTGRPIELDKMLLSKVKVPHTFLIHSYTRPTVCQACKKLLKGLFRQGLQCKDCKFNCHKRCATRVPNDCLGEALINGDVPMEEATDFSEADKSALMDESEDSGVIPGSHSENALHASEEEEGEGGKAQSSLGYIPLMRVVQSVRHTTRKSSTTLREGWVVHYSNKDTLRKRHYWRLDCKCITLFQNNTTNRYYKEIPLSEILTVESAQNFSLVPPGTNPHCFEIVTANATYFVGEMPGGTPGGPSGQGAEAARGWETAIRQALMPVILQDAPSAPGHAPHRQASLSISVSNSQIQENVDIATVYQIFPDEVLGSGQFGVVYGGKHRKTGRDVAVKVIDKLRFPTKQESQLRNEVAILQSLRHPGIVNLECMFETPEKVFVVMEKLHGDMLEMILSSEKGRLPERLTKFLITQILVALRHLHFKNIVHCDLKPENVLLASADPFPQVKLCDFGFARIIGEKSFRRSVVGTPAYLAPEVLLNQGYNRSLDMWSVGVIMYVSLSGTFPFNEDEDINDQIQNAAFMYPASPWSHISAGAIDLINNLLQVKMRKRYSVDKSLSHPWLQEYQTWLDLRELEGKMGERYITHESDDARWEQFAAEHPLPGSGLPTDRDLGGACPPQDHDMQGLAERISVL
Outline: as §1

CSK = molecular target: T5, CSK (Homo sapiens, UniProt P41240)
T5 construct: purchased ThermoFisher (SelectScreen, Z'-LYTE)
Outline: as §1

CAMK4 (CaMKIV) = molecular target: T6, CAMK4 (CaMKIV) (Homo sapiens, UniProt Q16566)
T6 construct: purchased ThermoFisher (SelectScreen, Z'-LYTE)
Outline: as §1

CHEK2 (CHK2) = molecular target: T7, CHEK2 (CHK2) (Homo sapiens, UniProt O96017)
T7 construct: purchased ThermoFisher (SelectScreen, Z'-LYTE)
Outline: as §1

T2 sequence (P42685 whole entry): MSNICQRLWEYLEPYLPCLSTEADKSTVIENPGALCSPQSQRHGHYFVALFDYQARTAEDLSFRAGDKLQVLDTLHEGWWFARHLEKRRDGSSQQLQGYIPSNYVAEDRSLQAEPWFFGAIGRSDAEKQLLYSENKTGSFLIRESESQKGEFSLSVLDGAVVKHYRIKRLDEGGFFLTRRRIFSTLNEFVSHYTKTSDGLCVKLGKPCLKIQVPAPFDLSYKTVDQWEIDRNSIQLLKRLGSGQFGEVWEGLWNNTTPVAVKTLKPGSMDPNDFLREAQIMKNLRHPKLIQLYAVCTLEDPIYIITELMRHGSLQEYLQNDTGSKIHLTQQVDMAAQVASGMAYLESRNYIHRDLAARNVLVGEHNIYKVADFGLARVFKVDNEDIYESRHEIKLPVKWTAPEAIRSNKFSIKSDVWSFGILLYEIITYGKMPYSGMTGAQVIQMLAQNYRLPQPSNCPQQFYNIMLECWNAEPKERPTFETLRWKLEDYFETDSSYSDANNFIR
T5 sequence (P41240 whole entry): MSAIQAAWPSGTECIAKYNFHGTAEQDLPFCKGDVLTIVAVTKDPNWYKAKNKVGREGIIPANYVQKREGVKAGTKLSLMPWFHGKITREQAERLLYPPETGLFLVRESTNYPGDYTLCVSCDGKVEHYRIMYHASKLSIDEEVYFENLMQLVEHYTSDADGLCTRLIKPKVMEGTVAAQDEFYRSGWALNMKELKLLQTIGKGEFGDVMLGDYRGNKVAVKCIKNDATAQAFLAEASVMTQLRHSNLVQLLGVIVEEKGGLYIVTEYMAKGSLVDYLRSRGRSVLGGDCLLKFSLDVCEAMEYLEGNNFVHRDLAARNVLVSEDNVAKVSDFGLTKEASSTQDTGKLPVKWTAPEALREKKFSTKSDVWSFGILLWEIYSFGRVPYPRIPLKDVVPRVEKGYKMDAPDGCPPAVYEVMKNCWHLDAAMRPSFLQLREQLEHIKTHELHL
T7 sequence (O96017 whole entry): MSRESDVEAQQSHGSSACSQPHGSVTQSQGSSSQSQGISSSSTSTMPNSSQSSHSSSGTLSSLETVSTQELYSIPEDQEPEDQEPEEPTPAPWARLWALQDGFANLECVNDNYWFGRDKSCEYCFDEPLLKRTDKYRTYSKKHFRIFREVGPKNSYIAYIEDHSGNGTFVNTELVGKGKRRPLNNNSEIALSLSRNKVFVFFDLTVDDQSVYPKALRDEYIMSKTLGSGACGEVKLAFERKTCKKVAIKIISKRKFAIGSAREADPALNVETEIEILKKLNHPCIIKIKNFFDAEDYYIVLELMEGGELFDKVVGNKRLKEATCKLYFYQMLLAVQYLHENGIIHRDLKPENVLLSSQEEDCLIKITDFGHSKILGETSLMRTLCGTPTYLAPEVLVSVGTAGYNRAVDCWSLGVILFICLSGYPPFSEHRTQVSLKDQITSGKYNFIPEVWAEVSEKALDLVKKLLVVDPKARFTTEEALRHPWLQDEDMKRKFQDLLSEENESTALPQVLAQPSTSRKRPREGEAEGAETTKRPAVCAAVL
T1 sequence (Q9H2X6 whole entry): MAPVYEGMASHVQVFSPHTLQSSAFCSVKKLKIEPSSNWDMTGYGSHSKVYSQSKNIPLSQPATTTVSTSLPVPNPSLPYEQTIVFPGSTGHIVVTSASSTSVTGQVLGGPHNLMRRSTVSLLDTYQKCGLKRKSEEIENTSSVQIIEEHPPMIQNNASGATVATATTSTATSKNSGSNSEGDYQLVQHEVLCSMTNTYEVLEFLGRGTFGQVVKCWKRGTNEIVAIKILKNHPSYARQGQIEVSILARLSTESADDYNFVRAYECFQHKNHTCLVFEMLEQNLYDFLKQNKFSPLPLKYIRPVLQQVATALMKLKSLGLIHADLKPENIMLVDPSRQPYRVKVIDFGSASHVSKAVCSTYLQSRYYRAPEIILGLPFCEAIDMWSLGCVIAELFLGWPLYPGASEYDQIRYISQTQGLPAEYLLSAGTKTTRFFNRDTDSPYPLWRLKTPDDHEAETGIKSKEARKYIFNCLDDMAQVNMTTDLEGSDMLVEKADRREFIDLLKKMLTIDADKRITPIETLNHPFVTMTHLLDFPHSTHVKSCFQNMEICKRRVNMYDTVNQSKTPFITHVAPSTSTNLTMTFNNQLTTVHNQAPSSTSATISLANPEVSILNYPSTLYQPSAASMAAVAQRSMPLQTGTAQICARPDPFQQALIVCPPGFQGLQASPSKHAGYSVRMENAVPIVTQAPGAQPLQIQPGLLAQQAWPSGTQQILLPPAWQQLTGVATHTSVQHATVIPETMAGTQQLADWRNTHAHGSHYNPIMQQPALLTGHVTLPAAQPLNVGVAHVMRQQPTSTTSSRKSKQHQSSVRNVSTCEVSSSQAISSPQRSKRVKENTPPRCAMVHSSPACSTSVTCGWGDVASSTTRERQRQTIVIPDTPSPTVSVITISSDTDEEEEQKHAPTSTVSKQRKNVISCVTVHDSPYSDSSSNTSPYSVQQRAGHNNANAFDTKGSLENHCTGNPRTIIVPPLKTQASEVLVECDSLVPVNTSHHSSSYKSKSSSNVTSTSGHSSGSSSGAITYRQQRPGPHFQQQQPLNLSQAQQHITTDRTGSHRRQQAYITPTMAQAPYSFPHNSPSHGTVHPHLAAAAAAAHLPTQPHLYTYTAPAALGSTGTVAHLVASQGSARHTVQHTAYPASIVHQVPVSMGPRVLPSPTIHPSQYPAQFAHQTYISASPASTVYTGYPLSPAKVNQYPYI

With `Cc1cc(Nc2nc(N)nn2C(=O)NC(C)C)ccc1Cl` [Compound 5] the inhibition at 10 µM (HIPK2) was 45%, the inhibition at 10 µM (FRK (PTK5)) was 21% and the inhibition at 10 µM (IKBKE (IKK epsilon)) was 9%. The inhibition at 10 µM (PRKD2 (PKD2)) was 9%, the inhibition at 10 µM (CSK) was 16% and the inhibition at 10 µM (CAMK4 (CaMKIV)) was -10%. It also gave an inhibition at 10 µM (CHEK2 (CHK2)) of 4.23%.

`Cc1ncc(-c2nc(Nc3ccc(C(=O)NCCN4CCCCC4)cc3)ncc2F)n1C(C)C` [Compound 3] was tested, and the inhibition at 10 µM (HIPK2) was 93%, the inhibition at 10 µM (FRK (PTK5)) was 68% and the inhibition at 10 µM (IKBKE (IKK epsilon)) was 33%. For the same compound, the inhibition at 10 µM (PRKD2 (PKD2)) was 95%, the inhibition at 10 µM (CSK) was 29% and the inhibition at 10 µM (CAMK4 (CaMKIV)) was 8%. It also gave an inhibition at 10 µM (CHEK2 (CHK2)) of 88%.

For “XMD8-92 [Compound 2, reference compound]”, the “HIPK2 % Inhibition” value (HIPK2; 10 µM compound, ATP Km app) was 2%, the “FRK (PTK5) % Inhibition” value (FRK (PTK5); 10 µM compound, ATP Km app) was 20% and the “IKBKE (IKK epsilon) % Inhibition” value (IKBKE (IKK epsilon); 10 µM compound, ATP Km app) was 4.66%. For the same compound, the “PRKD2 (PKD2) % Inhibition” value (PRKD2 (PKD2); 10 µM compound, ATP Km app) was 21%, the “CSK % Inhibition” value (CSK; 10 µM compound, ATP Km app) was 11% and the “CAMK4 (CaMKIV) % Inhibition” value (CAMK4 (CaMKIV); 10 µM compound, ATP Km app) was 3%. The “CHEK2 (CHK2) % Inhibition” value (CHEK2 (CHK2); 10 µM compound, ATP Km app) was 26%.
